These results are taken from ChEMBL document CHEMBL3045184, “3D-QSAR studies of natural flavonoid compounds as reverse transcriptase inhibitors” (Med Chem Res, 2012).

The experiment has as its target T1, Avian myoblastosis virus polyprotein II (Avian myeloblastosis virus) (UniProt Q86831).
T1 sequence (whole entry): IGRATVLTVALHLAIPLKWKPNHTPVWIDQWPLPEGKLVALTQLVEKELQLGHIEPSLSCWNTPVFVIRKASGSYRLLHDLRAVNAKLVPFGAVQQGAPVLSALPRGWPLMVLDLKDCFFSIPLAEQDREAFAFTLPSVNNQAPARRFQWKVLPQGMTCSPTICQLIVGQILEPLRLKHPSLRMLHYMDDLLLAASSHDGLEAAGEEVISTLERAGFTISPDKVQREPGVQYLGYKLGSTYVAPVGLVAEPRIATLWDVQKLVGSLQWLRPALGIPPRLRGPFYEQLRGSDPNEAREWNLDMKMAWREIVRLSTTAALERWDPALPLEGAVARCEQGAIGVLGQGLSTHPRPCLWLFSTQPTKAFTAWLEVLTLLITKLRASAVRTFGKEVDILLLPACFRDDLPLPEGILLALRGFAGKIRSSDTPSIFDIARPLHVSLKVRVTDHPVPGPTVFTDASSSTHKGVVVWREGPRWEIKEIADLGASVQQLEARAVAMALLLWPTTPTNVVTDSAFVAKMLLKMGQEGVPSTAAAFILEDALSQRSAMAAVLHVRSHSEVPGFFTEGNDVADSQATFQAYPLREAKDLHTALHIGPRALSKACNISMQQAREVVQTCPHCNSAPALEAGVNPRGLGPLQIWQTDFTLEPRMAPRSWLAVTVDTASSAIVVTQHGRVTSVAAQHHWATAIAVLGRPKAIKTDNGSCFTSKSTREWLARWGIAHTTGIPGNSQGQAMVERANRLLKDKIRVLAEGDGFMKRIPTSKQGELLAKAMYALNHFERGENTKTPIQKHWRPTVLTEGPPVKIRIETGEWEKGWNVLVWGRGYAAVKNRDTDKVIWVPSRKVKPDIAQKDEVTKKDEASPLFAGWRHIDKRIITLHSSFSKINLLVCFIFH
Put plainly: Inhibition of Avian myeloblastosis virus reverse transcriptase. More on the design: concentration or dose not given beside the values. The following applies: concentration not given here.

`O=c1c(O)c(-c2ccc(O)c(O)c2)oc2cc(O)c(O)c(O)c12` showed an inhibition of 98.4%.

Regarding `O=c1c(O)c(-c2cc(O)c(O)c(O)c2)oc2cc(O)cc(O)c12`, the inhibition worked out at 82.5%.

Molecule `O=c1c(O)c(-c2ccc(O)c(O)c2)oc2cc(O)cc(O)c12` yielded an inhibition of 41.4%.

The molecule `O=c1c(O)c(-c2ccc(O)cc2)oc2cc(O)c(O)c(O)c12` yielded an inhibition of 97.2%.

`COc1cc(O)c2c(=O)cc(-c3ccccc3)oc2c1OC` yielded an inhibition of 9.8%.

Molecule `COc1ccc(-c2oc3cc(O)cc(O)c3c(=O)c2O)cc1O` returned an inhibition of 59.7%.

Consider `O=c1cc(-c2ccccc2O)oc2c(O)c(O)cc(O)c12`, for which the inhibition was determined as 67.7%.

The molecule `O=c1cc(-c2ccccc2)oc2c(O)c(O)cc(O)c12` registered an inhibition of 36.9%.

On to `CC(C)Oc1ccc(-c2cc(=O)c3c(O)c(O)c(OC(C)C)c(O)c3o2)cc1`, for which the inhibition was 46.2%.

In turn, `COc1ccc(-c2cc(=O)c3c(OC)cc(OC)cc3o2)cc1` had an inhibition of 45.6%.

The molecule `CC(C)Oc1cc(OC(C)C)c2c(=O)cc(-c3ccccc3)oc2c1` came in with an inhibition of 24.2%.

Take `COc1cc2oc(-c3ccccc3)cc(=O)c2c(O)c1OC`: the inhibition turned out to be 45.9%.

Turning to `COc1c(O)cc(O)c2c(=O)cc(-c3ccccc3O)oc12`, the inhibition came to 8.5%.

Molecule `COc1c(OC(C)C)cc(O)c2c(=O)cc(-c3ccc(O)cc3)oc12` came in with an inhibition of 15.4%.

Consider `O=c1cc(-c2ccc(O)cc2)oc2cc(O)c(O)c(O)c12`, for which the inhibition is 99.4%.

Take `COc1ccc(-c2cc(=O)c3c(O)c(O)c(OC)c(O)c3o2)cc1`: the inhibition is 39.1%.

`COc1ccc(-c2cc(=O)c3ccc(O)cc3o2)cc1` yielded an inhibition of 13.6%.

For `COc1cc(O)c2c(=O)c(O)c(-c3ccc(OC)c(O)c3)oc2c1`, the inhibition was 68.1%.

`CC(C)Oc1ccc(-c2cc(=O)c3c(O)cc(O)c(O)c3o2)cc1OC(C)C` gave an inhibition of 17.6%.

In turn, `COc1ccc(-c2cc(=O)c3c(O)cc(OC(C)C)c(OC)c3o2)cc1` gave an inhibition of 12%.

`COc1cc(O)c2c(=O)c(O)c(-c3ccc(O)c(O)c3)oc2c1`: the inhibition amounted to 50.8%.

As for `COc1cccc(O)c1-c1cc(=O)c2c(O)c(OC)c(OC)c(OC)c2o1`, the inhibition was found to be 18%.

On to `O=c1cc(-c2ccccc2)oc2cc(OCc3ccccc3)cc(O)c12`, for which the inhibition came out at 34.9%.

`CC(C)Oc1ccc(-c2cc(=O)c3c(O)cc(OC(C)C)cc3o2)cc1`: the inhibition is 23.6%.

The molecule `COc1cc(O)c2c(=O)cc(-c3ccccc3OC(C)=O)oc2c1OC` returned an inhibition of 17%.

As to `COc1c(O)cc(O)c2c(=O)cc(-c3ccccc3)oc12`, the inhibition was found to be 36.8%.

Regarding `O=c1c(O)c(-c2cc(O)c(O)c(O)c2)oc2cc(O)ccc12`, the inhibition turned out to be 87.5%.

`O=c1cc(-c2ccc(O)c(O)c2)oc2c(O)c(O)cc(O)c12`: the inhibition was found to be 31.3%.

On to `COc1c(O)cc2oc(-c3ccccc3)cc(=O)c2c1OC`, for which the inhibition worked out at 32.7%.

Take `CC(=O)Oc1cc2oc(-c3ccccc3)cc(=O)c2c(OC(C)=O)c1OC(C)=O`: the inhibition was found to be 71.4%.

On to `CC(C)Oc1ccc(-c2cc(=O)c3c(O)cc(O)cc3o2)cc1OC(C)C`, for which the inhibition came out at 12.2%.

`O=c1cc(-c2ccccc2)oc2cc(O)c(O)c(O)c12` displayed an inhibition of 95%.

For `COc1cc(-c2oc3cc(O)ccc3c(=O)c2O)ccc1O`, the inhibition came out at 52.7%.

`O=c1c(O)c(-c2ccc(O)c(O)c2)oc2c(O)c(O)cc(O)c12` came in with an inhibition of 85.1%.

Turning to `COc1c(O)cc2oc(-c3ccc(O)cc3)cc(=O)c2c1O`, the inhibition came to 23.3%.

`O=c1cc(-c2ccccc2)oc2c(O)c(OCc3ccccc3)cc(O)c12` gave an inhibition of 19%.

As for `O=c1c(O)c(-c2c(O)cccc2O)oc2cc(O)cc(O)c12`, the inhibition came out at 21.3%.

Take `COc1cccc(OC)c1-c1cc(=O)c2c(O)c(OC)c(OC)c(OC)c2o1`: the inhibition amounted to 5.4%.

In turn, `COc1c(OC(C)=O)cc2oc(-c3ccccc3)cc(=O)c2c1O` returned an inhibition of 18.3%.

As for `CC(=O)Oc1ccc(-c2cc(=O)c3c(OC(C)=O)cc(OC(C)=O)cc3o2)cc1`, the inhibition is 24.7%.

The molecule `O=c1cc(-c2ccc(O)c(O)c2)oc2cc(O)c(O)c(O)c12` registered an inhibition of 91.7%.

The molecule `O=c1c(O)c(-c2ccccc2)oc2cc(O)cc(O)c12` yielded an inhibition of 42.1%.

Molecule `COc1cc2oc(-c3ccc(O)cc3)cc(=O)c2c(O)c1OC` came in with an inhibition of 50.9%.

As for `CC(C)Oc1ccc(-c2cc(=O)c3c(O)c(O)c(OC(C)C)cc3o2)cc1`, the inhibition stood at 18%.

The molecule `COc1ccc(-c2cc(=O)c3c(O)cc(O)cc3o2)cc1` returned an inhibition of 48%.

`COc1cc2oc(-c3ccccc3)cc(=O)c2c(OC)c1OC` returned an inhibition of 29.8%.

For the molecule `O=c1c(O)c(-c2ccccc2O)oc2cc(O)cc(O)c12`, the inhibition was 28%.

In the case of `COc1ccc(-c2cc(=O)c3c(O)cc(OC)cc3o2)cc1`, the inhibition was determined as 54.8%.

In turn, `CC(C)Oc1ccc(-c2cc(=O)c3c(O)cc(O)cc3o2)cc1` had an inhibition of 55.4%.

`COc1cc(O)c2c(=O)c(OC)c(-c3ccc(OC)c(OC)c3)oc2c1`: the inhibition was determined as 9.2%.

`COc1ccc(-c2oc3cc(O)cc(O)c3c(=O)c2O)cc1`: the inhibition is 64.6%.

Consider `COc1cc2oc(-c3ccc(O)c(O)c3)cc(=O)c2c(O)c1O`, for which the inhibition came to 91.4%.

On to `O=c1c(O)c(-c2ccc(O)cc2)oc2cc(O)cc(O)c12`, for which the inhibition was 72.6%.

`O=c1cc(-c2ccc(O)cc2)oc2c(O)c(O)cc(O)c12` returned an inhibition of 22%.

For the molecule `O=c1c(O)c(-c2ccc(O)cc2O)oc2cc(O)cc(O)c12`, the inhibition worked out at 40.5%.
